How the values were obtained:
[1] = Stability of analytes in rat plasma (short-term, long-term, freeze/thaw); assay type: in vitro ADME; conditions: n = 6; for Freeze/thaw (−20 °C to room temperature) RE: three cycles
Procedure: The stability of the samples (including QC and IS) in rat plasma was determined by placing samples (n = 6) in three settings. Of those settings, the short-term stability was determined via leaving the samples at room temperature for 24 h. For long-term stability evaluation, the samples went through 3 weeks of storage at − 20 °C before measurement. The stability of samples after freeze-thaw treatment was assessed by performing freeze/thaw cycles on each sample three times prior to analysis. The fresh samples were prepared as a negative control. The acceptable bias was considered great stability when it was within ±15%. […]

[2] = Pharmacokinetic study in rats after sublingual vein administration of parecoxib; assay type: in vivo; conditions: male, Sprague Dawley, rat plasma, sublingual vein administration of 5 mg/kg PCX, n = 6; for MRT last: read-out: MRT(0-t); for MRT inf: read-out: MRT(0-∞)
Procedure: The average weight range of 200–220 g male Sprague Dawley (SD) was obtained from the laboratory animal center of the Wenzhou Medical University (Wenzhou, China, License No. SCXK [ZJ] 2005–0019). Rats stayed in cages and freely got food and water under a stable temperature range of 24–26 °C and a controllable 12 h light/dark cycle apparatus. Animal protocols were approved by the Institutional animal experimentation Committee of the Wenzhou Medical University. A total of 12 SD rats were separated into two isolated groups, including the experimental group (n = 6) and the control group (n = 6). Fasting was carried out for 12 h before assays, and only water was freely accessible. The rats were treated with […] PCX intravenously, which was equivalent to 56 mg for an individual of 70 kg human body weight (regular range in the clinic is from 40 to 80 mg). 0.3 ml of blood samples were collected and stabilized in heparinized tubes at each given time point (0, 0.083, 0.167, 0.25, 0.5, 0.75, 1, 2, 3, 4, 6, 8, 10, 12 and 24 h). The plasma samples were separated through centrifugation at 3000 r/min for 10 min and carefully collected the supernatant and stored at − 20 °C before analysis. All pharmacokinetic data were analyzed by the DAS (Drug and Statistics) software. All rats were sacrificed by CO2 inhalation.
In the clinic, the recommended dose of PCX was 40 mg per patient, i.m. or i.v., and the total daily dose was not more than 80 mg. In the present study, a dose of 5 mg/kg PCX was injected to rats by i.v., which was equivalent to 56 mg for an individual of 70 kg body weight (range of 40–80 mg). The UPLC-MS/MS has effectively monitored the pharmacokinetic changes after administration of […] PCX. Further, the pharmacokinetic parameters were figured out by using the DAS 3.0 software.

[3] = set-up: method as in PMID 11519767; conditions: control of acute pain, specific dose of PCX; cited from earlier work
plasma proteins = conditions: cited from earlier work
[4] = set-up: method as in PMID 29843006; conditions: cited from earlier work

SMILES: Cc1ccc(-c2cc(C(F)(F)F)nn2-c2ccc(S(N)(=O)=O)cc2)cc1 [Celecoxib]
- Long-term (−20 °C, 3 weeks) RE ([1]; 200 ng/mL): −1.3%
- Short-term (room temperature, 24 h) RE ([1]; 200 ng/mL): 7.5%
- Freeze/thaw (−20 °C to room temperature) RE ([1]; 200 ng/mL): 5.8%

SMILES: CCC(=O)NS(=O)(=O)c1ccc(-c2c(-c3ccccc3)noc2C)cc1 [Parecoxib]
- AUC(0-inf) [2]: 2110 ± 283 ng·h/mL
- AUC(0-t) [2]: 2110 ± 282 ng·h/mL
- Cmax [2]: 5070 ± 1210 ng/mL
- Tmax [2]: 0.1 h
- clearance [2]: 40 mL/min/kg
- half-life [2]: 1.4 ± 0.5 h
- MRT last [2]: 0.4 ± 0.1 h
- MRT inf [2]: 0.4 ± 0.1 h
- onset of analgesia [3]: 7 to 14 min
- time to peak analgesic effect [3]: ≤ 2 h
- Long-term (−20 °C, 3 weeks) RE ([1]; 100 ng/mL): 14.2%
- Short-term (room temperature, 24 h) RE ([1]; 100 ng/mL): 13.0%
- Freeze/thaw (−20 °C to room temperature) RE ([1]; 100 ng/mL): 14.9%
- Long-term (−20 °C, 3 weeks) RE ([1]; 800 ng/mL): 12.7%
- Short-term (room temperature, 24 h) RE ([1]; 800 ng/mL): 10.2%
- Freeze/thaw (−20 °C to room temperature) RE ([1]; 800 ng/mL): 14.2%
- Long-term (−20 °C, 3 weeks) RE ([1]; 8000 ng/mL): 14.3%
- Short-term (room temperature, 24 h) RE ([1]; 8000 ng/mL): −10.5%
- Freeze/thaw (−20 °C to room temperature) RE ([1]; 8000 ng/mL): −7.9%

SMILES: Cc1onc(-c2ccccc2)c1-c1ccc(S(N)(=O)=O)cc1 [Valdecoxib]
- AUC(0-inf) [2]: 4370 ± 1530 ng·h/mL
- AUC(0-t) [2]: 4190 ± 1590 ng·h/mL
- Cmax [2]: 701 ± 92.6 ng/mL
- Tmax [2]: 0.8 ± 0.2 h
- clearance [2]: 20 mL/min/kg
- half-life [2]: 3.1 ± 1.1 h
- MRT last [2]: 4.1 ± 1 h
- MRT inf [2]: 4.8 ± 1.1 h
- bound to plasma proteins (plasma proteins): 98%
- Long-term (−20 °C, 3 weeks) RE ([1]; 5 ng/mL): −1.4%
- Short-term (room temperature, 24 h) RE ([1]; 5 ng/mL): −6.7%
- Freeze/thaw (−20 °C to room temperature) RE ([1]; 5 ng/mL): 5.2%
- Long-term (−20 °C, 3 weeks) RE ([1]; 40 ng/mL): 13.2%
- Short-term (room temperature, 24 h) RE ([1]; 40 ng/mL): 12%
- Freeze/thaw (−20 °C to room temperature) RE ([1]; 40 ng/mL): 14.2%
- Long-term (−20 °C, 3 weeks) RE ([1]; 400 ng/mL): 3.2%
- Short-term (room temperature, 24 h) RE ([1]; 400 ng/mL): 3.2%
- Freeze/thaw (−20 °C to room temperature) RE ([1]; 400 ng/mL): 9.5%
- fraction of VCX in the circulation metabolized to hydroxylated VCX [4]: approximately 10%

Source: PMC7137270, “Determination of parecoxib and valdecoxib in rat plasma by UPLC-MS/MS and its application to pharmacokinetics studies” (BMC Pharmacology & Toxicology, 2020)
